# Like-named read-outs stand apart in the source and are kept apart here.
# What was measured:
# [1] = system: diffuse knapweed (Centauria. diffusa) seeds; assay: Protocol 1 clean seed dip treatment and germination test, diffuse knapweed; assay type: in vivo; settings: non-soil environment
# Method: (§1) All seeds for a Protocol 1 Test were removed from the flower parts and used as clean seeds. A treatment consisted of 100 seeds with four replications for a total of at least 400 seeds per treatment. In some cases extra seeds were treated to accommodate additional germination tests, if needed. In lots of 100, seeds were first rinsed with water to simulate a wash treatment. These pre-wetted seeds were then dipped for one minute in one of the Treatment Rinse percent solutions per volume as show below. Three quality glyphosate products were used. […] The inert ingredients typically comprise tallow amine, lecithin, algaecide and purified water. […] The surfactants added to the percent solution were a penetrator, comprising methylated seed oil, and a spreader, comprising polyether-polymethylsiloxane-copolymer polyether or silicone polyether copolymer.
# (§2) Seeds were stirred during the dip to assure all seeds were exposed to the solution. Treated seeds were allowed to air dry with the time to dry recorded. Three main seed types were used in the Protocol 1 Test: whitetop (Cardaria draba), spotted knapweed (Centauria maculosa), and diffuse knapweed (Centauria. diffusa). Two additional seed types were used for one treatment each, Russian thistle (Salsola tragus) and Scotch thistle (Onopordum acanthium).
# (§3) When seeds were thoroughly dry after treatment they were packaged and sent for germination testing. […]
# [2] = system: whitetop (Cardaria draba) seeds; assay: Protocol 1 clean seed dip treatment and germination test, whitetop; assay type: in vivo; settings: non-soil environment
# Method: as §1, §2, §3
# [3] = system: Scotch thistle (Onopordum acanthium) seeds; assay: Protocol 1 clean seed treatment, germination test in soil environment, Scotch thistle; assay type: in vivo
# Method: as §1, §2, §3
# [4] = system: Scotch thistle (Onopordum acanthium) seeds; settings: soil application of glyphosate; cited from earlier work
# [5] = system: spotted knapweed (Centauria maculosa) seeds; assay: Protocol 1 clean seed dip treatment and germination test, spotted knapweed; assay type: in vivo; settings: non-soil environment
# Method: as §1, §2, §3
# [6] = system: Russian thistle (Salsola tragus) seeds; assay: Protocol 1 clean seed dip treatment and germination test, Russian thistle; assay type: in vivo; settings: non-soil environment
# Method: as §1, §2, §3
smiles,measurement,setting,value
O=C(O)CNCP(=O)(O)O [glyphosate],"control, considering treated seeds that may grow to reproductive maturity",[1],99%
same,"control, considering treated seeds that may grow to reproductive maturity",[2],95%
same,"control, considering treated seeds that may grow to reproductive maturity","[3]; Scotch thistle, non-soil environment",100%
same,control of Scotch thistle,"[3]; direct application of glyphosate to the seed, then placed in soil to germinate",controlled
same,control of Scotch thistle,[4],not controlled
same,"control, considering treated seeds that may grow to reproductive maturity",[5],100%
same,"control, considering treated seeds that may grow to reproductive maturity",[6],72%

# Reference: patent US9084395B2, “Method to arrest growth of invasive species' seeds while in non-natural environment prior to transport” (priority 2012, dated 2015)
